Assay results: patent publication US20240067651A1 (Biohaven Therapeutics Ltd., priority 2019, published 2024)
Blank lines part the entries; values can stand above or below the molecule they belong to.

Experiments:
[1] = Stability in Simulated Intestinal Fluid (SIF); type: in vitro ADME; set-up: key: % parent compound remaining relative to 0-minute sample
Outline: (§1)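 Each compound is spiked to a final 2 μg/mL into SGF with pepsin (pH 1.2) and into SIF with pancreatin (pH 6.8). Samples shake at 37° C, aliquots are taken between 0 and 60 minutes, precipitated with acetonitrile and analysed by LC-MS/MS. Degradation half-life is derived from the natural-log plot where time points allow.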

[2] = Caco-2 Permeability Assay; type: in vitro ADME, human; settings: human
Outline: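 Bidirectional transport at 37 °C for 90 min, 10 μM donor concentration, with or without Pgp inhibitor, across 21-day Caco-2 monolayers with TEER >600 […] in HEPES-buffered HBSS, pH 7.4. LC-MS/MS of donor and receiver samples gives Papp, B→A/A→B efflux ratio and mass recovery.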

Plasma Stability = type: in vitro ADME, human
Outline: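 Parent compound quantified by LC-MS/MS after acetonitrile precipitation, reported as percent of control remaining (triplicate). Incubation: 1 hour, 37° C, fresh human plasma, compound at 1 μM.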

[3] = Stability in Simulated Gastric Fluid (SGF); type: in vitro ADME; set-up: key: % parent compound remaining relative to 0-minute sample
Outline: as §1

[4] = % remaining at 1 h, SIF with pancreatin pH 6.8, 2 μg/mL, 37° C.
[5] = % remaining at 1 h, human plasma, 1 μM, 37° C.
[6] = % remaining at 1 h, SGF with pepsin pH 1.2, 2 μg/mL, 37° C.
[7] = % @ 1 h (remaining) in simulated intestinal fluid
[8] = Caco-2, pH 7.4, Caco-2 monolayer
[9] = % @ 1 h (remaining) in human plasma
[10] = % @ 1 h (remaining) in simulated gastric fluid
[11] = % remaining at 1 h in simulated intestinal fluid
[12] = % remaining at 1 h in human plasma
[13] = % remaining at 1 h in simulated gastric fluid
[14] = Caco-2, pH 7.4, donor 10 μM, 90 minutes, 37° C., direction not given

SIF ([1]; simulated intestinal fluid, @ 1 h): 6% @ 1 h
Papp at 90 min, 10 µM [2, 8]: 15.5 nm/s
human Plasma stability (Plasma Stability; human plasma, @ 1 h): 0% @ 1 h
SGF ([3]; simulated gastric fluid, @ 1 h): 100% @ 1 h
Compound: CC(C)OCCn1c(=S)[nH]c(=O)c2c1ccn2COC(=O)CN [Example 284]

SIF [1, 4]: 96% remaining
Papp at 90 min, 10 µM [2, 14]: 200 nm/s
human Plasma stability (Plasma Stability; [5]): 99% remaining
SGF [3, 6]: 100% remaining
Compound: CC(C)OCCn1c(SCOC(=O)N(C)c2ccc(F)cc2)nc(=O)c2[nH]ccc21 [Example 211, ({4-oxo-1-[2-(propan-2-yloxy)ethyl]-1H,4H,5H-pyrrolo[3,2-d]pyrimidin-2-yl}sulfanyl)methyl N-(4-fluorophenyl)-N-methylcarbamate]

SIF ([1]; simulated intestinal fluid, after 1 h): 2% remaining
Papp at 90 min, 10 µM [2, 8]: 117 nm/s
human Plasma stability (Plasma Stability; human plasma, after 1 h): 94% remaining
SGF ([3]; simulated gastric fluid, after 1 h): 99% remaining
Compound: CC(C)OCCn1c(=S)[nH]c(=O)c2c1ccn2COC(=O)CCCCCCCCCCC(=O)O [Example 261]

SIF [1, 7]: 96% @ 1 h
Papp at 90 min, 10 µM [2, 8]: 42 nm/s
human Plasma stability (Plasma Stability; [9]): 90% @ 1 h
SGF [3, 10]: 99% @ 1 h
Compound: CCN(C)C(=O)OCSc1nc(=O)c2[nH]ccc2n1CCOC(C)C [Example 163]

SIF [1, 4]: 67%
Papp at 90 min, 10 µM [2, 14]: 80.5 nm/s
human Plasma stability (Plasma Stability; [5]): 59%
SGF [3, 6]: 63%
Compound: CC(C)OCCn1c(=S)[nH]c(=O)c2c1ccn2C(C)OC(=O)c1ccccc1 (stereo not drawn) [Example 115, 1-{4-oxo-1-[2-(propan-2-yloxy)ethyl]-2-sulfanylidene-1H,2H,3H,4H,5H-pyrrolo[3,2-d]pyrimidin-5-yl}ethyl benzoate]

SIF ([1]; % remaining at 1 h in simulated intestinal fluid, the 15th table): 98% @ 1 h
Papp at 90 min, 10 µM ([2]; Caco-2, pH 7.4, Caco-2 monolayer, the 15th table): 138 nm/s
human Plasma stability (Plasma Stability; % remaining at 1 h in human plasma, the 15th table): 99% @ 1 h
SGF ([3]; % remaining at 1 h in simulated gastric fluid, the 15th table): 99% @ 1 h
Compound: CCN(C(=O)OCSc1nc(=O)c2[nH]ccc2n1CCOC(C)C)C(C)C [Example 190]

Second part, the molecule before the results:

Compound: COC(=O)[C@H](CCCCNC(=O)OC(C)(C)C)NC(=O)OCn1ccc2c1c(=O)[nH]c(=S)n2CCOC(C)C [Example 101, methyl (2S)-6-{[(tert-butoxy)carbonyl]amino}-2-{[{{4-oxo-1-[2-(propan-2-yloxy)ethyl]-2-sulfanylidene-1H,2H,3H,4H,5H-pyrrolo[3,2-d]pyrimidin-5-yl}methoxy)carbonyl]amino}hexanoate]
SIF [1, 4]: 96%
Papp at 90 min, 10 µM ([2]; Caco-2, pH 7.4, no unit printed at the place (tables the 9th table and the 10th table have no head)): 14.6 nm/s
human Plasma stability (Plasma Stability; [5]): 97%
SGF [3, 6]: 75%

Compound: CC(C)OCCn1c(=S)[nH]c(=O)c2c1ccn2COC(=O)c1ccccc1.O=C(O)C(F)(F)F [Example 157]
SIF [1, 7]: 20% @ 1 h
Papp at 90 min, 10 µM [2, 8]: 73 nm/s
human Plasma stability (Plasma Stability; [9]): 0% @ 1 h
SGF [3, 10]: 96% @ 1 h

Compound: CC(C)OCCn1c(=S)[nH]c(=O)c2c1ccn2COC(=O)CCCCNC(=O)CN(C)C(=O)CN.O=C(O)C(F)(F)F [Example 59]
SIF [1, 11]: 98% remaining
Papp at 90 min, 10 µM [2, 8]: < 2.54 nm/s
human Plasma stability (Plasma Stability; [12]): 11% remaining
SGF [3, 13]: 95% remaining

Compound: CC(C)C[C@H](N)C(=O)OCCC(=O)OCn1ccc2c1c(=O)[nH]c(=S)n2CCOC(C)C.O=C(O)C(F)(F)F [Example 367, trifluoroacetic acid 3-oxo-3-({4-oxo-1-[2-(propan-2-yloxy)ethyl]-2-sulfanylidene-1H,2H,3H,4H,5H-pyrrolo [3,2-d]pyrimidin-5-yl}methoxy)propyl (2S)-2-amino-4-methylpentanoate]
SIF ([1]; simulated intestinal fluid, remaining at 1 h): 0% remaining
Papp at 90 min, 10 µM [2, 8]: < 1.08 nm/s
human Plasma stability (Plasma Stability; human plasma, remaining at 1 h): 1% remaining
SGF ([3]; simulated gastric fluid, remaining at 1 h): 100% remaining

Compound: CCCCN(C)C(=O)OCSc1nc(=O)c2[nH]ccc2n1CCOC(C)C.O=C(O)C(F)(F)F [Example 160]
SIF [1, 7]: 95% @ 1 h
Papp at 90 min, 10 µM [2, 8]: 158 nm/s
human Plasma stability (Plasma Stability; [9]): 99% @ 1 h
SGF [3, 10]: 92% @ 1 h

Compound: CSCC[C@H](NC(=O)OCC1c2ccccc2-c2ccccc21)C(=O)NCCC(=O)OCn1ccc2c1c(=O)[nH]c(=S)n2CCOC(C)C.O=C(O)C(F)(F)F [Example 21]
SIF [1, 11]: 75% remaining
Papp at 90 min, 10 µM [2, 8]: 57.9 nm/s
human Plasma stability (Plasma Stability; [12]): 91% remaining
SGF [3, 13]: 88% remaining
